The values below come from ChEMBL document CHEMBL1134789, “Design, synthesis, and modeling of novel cyclic thrombin receptor-derived peptide analogues of the Ser42-Phe-Leu-Leu-Arg46 motif sequence with fixed conformations of pharmacophoric groups: importance of a Phe/Arg/NH2 cluster for receptor activation and implications in the design of nonpeptide …” (2001).

Each structure is given as a SMILES string. Bounds are passed on as bounds.

The assay is filed under the species Rattus norvegicus. The assay is described as follows: Ratio concentration and the concentration of SFLLR-NH2 necessary for producing an equal relaxing effect on the isolated rat aortic rings. Type of assay: functional, Aorta.
With `NC(N)=NCCCCCC(=O)N1CCN(C(=O)C(N)Cc2ccccc2)CC1` (configuration not stated), the Relative potency is 32.8.

As for `CC(C)C[C@H](NC(=O)[C@H](CC(C)C)NC(=O)[C@H](Cc1ccccc1)NC(=O)[C@@H](N)CO)C(=O)N[C@@H](CCCN=C(N)N)C(N)=O`, the Relative potency was 1.

As to `N=C(N)NCCCCCC(=O)NCCCCNC(=O)Cc1ccccc1`, the Relative potency amounted to 68.

Take `N=C(N)NCCCCCC(=O)NCCCCNC(=O)Cc1ccc(F)cc1`: the Relative potency turned out to be 50.6.

Turning to `CC(C)C[C@@H]1NC(=O)[C@H](CC(C)C)NC(=O)[C@H](Cc2ccccc2)NC(=O)[C@@H](N)CNC(=O)[C@@H](N)CCCCNC(=O)[C@H](CCCN=C(N)N)NC1=O`, the Relative potency amounted to 3.3.

For the compound `N=C(N)NCCCCCC(=O)N1CCC(C(=O)NCc2ccc(F)cc2)CC1`, the Relative potency is listed as 37.3.

For `CC(C)C[C@@H]1NC(=O)[C@H](CC(C)C)NC(=O)[C@@H](Cc2ccccc2)NC(=O)[C@@H](N)CNC(=O)[C@@H](N)CCCCNC(=O)[C@H](CCCNC(=N)N)NC1=O`, the Relative potency was above 500.
